Article PMC6009956, “Design, synthesis and biological activity of N^4-phenylsubstituted-7H-pyrrolo[2,3-d]pyrimidin-4-amines as dual inhibitors of aurora kinase A and epidermal growth factor receptor kinase” (Journal of Enzyme Inhibition and Medicinal Chemistry, 2017)
Like-named read-outs stand apart in the source and are kept apart here.

How the values were obtained:
[1] = target: T1, aurora A kinase (AURKA) (Homo sapiens, UniProt O14965); experiment: ADP-Glo kinase assay, Aurora A; assay type: biochemical
T1 construct: purchased BPS Bioscience (assay run externally by the vendor)
T1 sequence (O14965 1-403): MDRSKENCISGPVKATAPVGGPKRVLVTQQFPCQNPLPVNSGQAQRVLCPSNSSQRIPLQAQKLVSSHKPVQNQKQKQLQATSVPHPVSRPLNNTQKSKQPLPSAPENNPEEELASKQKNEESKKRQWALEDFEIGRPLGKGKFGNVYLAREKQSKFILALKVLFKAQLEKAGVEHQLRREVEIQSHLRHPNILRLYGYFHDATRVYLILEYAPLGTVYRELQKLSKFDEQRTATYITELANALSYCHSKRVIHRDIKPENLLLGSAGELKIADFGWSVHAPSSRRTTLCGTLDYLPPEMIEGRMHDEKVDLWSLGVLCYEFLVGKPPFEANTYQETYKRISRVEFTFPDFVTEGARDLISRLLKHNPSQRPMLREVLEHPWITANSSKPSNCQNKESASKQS

[2] = target: EGFR (Homo sapiens, UniProt P00533); experiment: ADP-Glo kinase assay, EGFR; assay type: biochemical; parameters: purchased BPS Bioscience (assay run externally by the vendor)
[3] = 10 µM ATP, triplicate, read-out: AURKA IC50 ± SD
[4] = 10 µM ATP/0.2 mg/ml Kemptide, read-out: Aurora A IC50 (dose-response curve, supplement)
[5] = 10 µM ATP/0.2 mg/ml Poly-Glu-Tyr, read-out: EGFR IC50 (dose-response curve, supplement)

Chain of EGFR (P00533 25-1210): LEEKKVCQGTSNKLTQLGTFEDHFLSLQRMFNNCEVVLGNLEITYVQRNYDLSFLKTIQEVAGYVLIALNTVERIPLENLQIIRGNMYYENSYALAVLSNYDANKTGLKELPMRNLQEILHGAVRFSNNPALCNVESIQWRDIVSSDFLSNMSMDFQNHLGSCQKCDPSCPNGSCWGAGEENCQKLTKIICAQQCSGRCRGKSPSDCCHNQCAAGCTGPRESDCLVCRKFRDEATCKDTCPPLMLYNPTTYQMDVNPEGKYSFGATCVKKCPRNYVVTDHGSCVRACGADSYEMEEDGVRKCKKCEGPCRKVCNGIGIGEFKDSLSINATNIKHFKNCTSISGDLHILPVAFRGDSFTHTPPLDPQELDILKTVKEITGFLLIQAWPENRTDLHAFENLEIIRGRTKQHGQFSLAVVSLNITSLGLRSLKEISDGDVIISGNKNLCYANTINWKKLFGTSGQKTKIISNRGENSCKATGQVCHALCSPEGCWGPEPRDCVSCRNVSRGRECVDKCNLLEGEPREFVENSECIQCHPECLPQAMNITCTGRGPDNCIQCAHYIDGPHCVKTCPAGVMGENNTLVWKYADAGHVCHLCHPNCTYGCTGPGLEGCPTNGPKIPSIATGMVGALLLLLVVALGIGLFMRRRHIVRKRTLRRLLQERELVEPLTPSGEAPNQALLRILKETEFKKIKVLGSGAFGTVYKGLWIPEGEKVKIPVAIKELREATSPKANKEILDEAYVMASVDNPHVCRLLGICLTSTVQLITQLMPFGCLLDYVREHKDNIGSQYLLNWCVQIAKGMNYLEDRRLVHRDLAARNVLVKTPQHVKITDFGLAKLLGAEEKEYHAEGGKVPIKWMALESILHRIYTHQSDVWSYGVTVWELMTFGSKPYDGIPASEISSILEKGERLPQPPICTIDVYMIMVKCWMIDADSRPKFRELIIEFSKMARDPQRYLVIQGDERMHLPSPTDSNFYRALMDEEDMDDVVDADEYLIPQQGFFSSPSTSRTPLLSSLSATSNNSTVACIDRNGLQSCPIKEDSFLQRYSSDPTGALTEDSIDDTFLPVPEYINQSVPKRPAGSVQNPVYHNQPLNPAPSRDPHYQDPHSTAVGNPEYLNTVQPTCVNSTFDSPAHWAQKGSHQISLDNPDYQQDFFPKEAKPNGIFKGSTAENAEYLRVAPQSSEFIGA

Structure (SMILES): Cc1cccc(Nc2ncnc3[nH]ccc23)c1 [Compound 12, N^4-(3-methylaniline)-7H-pyrrolo[2,3-d]pyrimidin-4-amine]
- IC50 [1, 3]: 3430 ± 120 nM
- IC50 [1, 4]: 3400 nM
- Aurora A % Activity Set1 ([1]; Log[nM] 0): 101%
- Aurora A % Activity Set2 ([1]; Log[nM] 0): 105%
- Aurora A % Activity Set3 ([1]; Log[nM] 0): 95%
- Aurora A % Activity Set1 ([1]; Log[nM] 1.0): 100%
- Aurora A % Activity Set2 ([1]; Log[nM] 1.0): 102%
- Aurora A % Activity Set3 ([1]; Log[nM] 1.0): 97%
- Aurora A % Activity Set1 ([1]; Log[nM] 1.5): 97%
- Aurora A % Activity Set2 ([1]; Log[nM] 1.5): 100%
- Aurora A % Activity Set3 ([1]; Log[nM] 1.5): 97%
- Aurora A % Activity Set1 ([1]; Log[nM] 2.0): 96%
- Aurora A % Activity Set2 ([1]; Log[nM] 2.0): 101%
- Aurora A % Activity Set3 ([1]; Log[nM] 2.0): 105%
- Aurora A % Activity Set1 ([1]; Log[nM] 2.5): 89%
- Aurora A % Activity Set2 ([1]; Log[nM] 2.5): 95%
- Aurora A % Activity Set3 ([1]; Log[nM] 2.5): 95%
- Aurora A % Activity Set1 ([1]; Log[nM] 3.0): 89%
- Aurora A % Activity Set2 ([1]; Log[nM] 3.0): 91%
- Aurora A % Activity Set3 ([1]; Log[nM] 3.0): 92%
- Aurora A % Activity Set1 ([1]; Log[nM] 3.5): 48%
- Aurora A % Activity Set2 ([1]; Log[nM] 3.5): 50%
- Aurora A % Activity Set3 ([1]; Log[nM] 3.5): 53%
- Aurora A % Activity Set1 ([1]; Log[nM] 4.0): 17%
- Aurora A % Activity Set2 ([1]; Log[nM] 4.0): 17%
- Aurora A % Activity Set3 ([1]; Log[nM] 4.0): 17%
- Aurora A % Activity Set1 ([1]; Log[nM] 4.5): 7%
- Aurora A % Activity Set2 ([1]; Log[nM] 4.5): 8%
- Aurora A % Activity Set3 ([1]; Log[nM] 4.5): 8%
- Aurora A % Activity Set1 ([1]; Log[nM] 5.0): 4%
- Aurora A % Activity Set2 ([1]; Log[nM] 5.0): 4%
- Aurora A % Activity Set3 ([1]; Log[nM] 5.0): 3%
- IC50 ([2]; 10 µM ATP, triplicate, read-out: EGFR IC50 ± SD): 20 ± 3.6 nM
- IC50 [2, 5]: 19.9 nM
- EGFR % Activity Set1 ([2]; Log[nM] 0): 77%
- EGFR % Activity Set2 ([2]; Log[nM] 0): 88%
- EGFR % Activity Set3 ([2]; Log[nM] 0): 76%
- EGFR % Activity Set1 ([2]; Log[nM] 1.0): 69%
- EGFR % Activity Set2 ([2]; Log[nM] 1.0): 75%
- EGFR % Activity Set3 ([2]; Log[nM] 1.0): 66%
- EGFR % Activity Set1 ([2]; Log[nM] 1.5): 34%
- EGFR % Activity Set2 ([2]; Log[nM] 1.5): 39%
- EGFR % Activity Set3 ([2]; Log[nM] 1.5): 33%
- EGFR % Activity Set1 ([2]; Log[nM] 2.0): 19%
- EGFR % Activity Set2 ([2]; Log[nM] 2.0): 19%
- EGFR % Activity Set3 ([2]; Log[nM] 2.0): 16%
- EGFR % Activity Set1 ([2]; Log[nM] 2.5): 10%
- EGFR % Activity Set2 ([2]; Log[nM] 2.5): 9%
- EGFR % Activity Set3 ([2]; Log[nM] 2.5): 8%
- EGFR % Activity Set1 ([2]; Log[nM] 3.0): 5%
- EGFR % Activity Set2 ([2]; Log[nM] 3.0): 5%
- EGFR % Activity Set3 ([2]; Log[nM] 3.0): 5%
- EGFR % Activity Set1 ([2]; Log[nM] 3.5): 2%
- EGFR % Activity Set2 ([2]; Log[nM] 3.5): 9%
- EGFR % Activity Set3 ([2]; Log[nM] 3.5): 2%
- EGFR % Activity Set1 ([2]; Log[nM] 4.0): 1%
- EGFR % Activity Set2 ([2]; Log[nM] 4.0): 1%
- EGFR % Activity Set3 ([2]; Log[nM] 4.0): 1%
- EGFR % Activity Set1 ([2]; Log[nM] 4.5): 0%
- EGFR % Activity Set2 ([2]; Log[nM] 4.5): 0%
- EGFR % Activity Set3 ([2]; Log[nM] 4.5): 0%
- EGFR % Activity Set1 ([2]; Log[nM] 5.0): 0%
- EGFR % Activity Set2 ([2]; Log[nM] 5.0): 0%
- EGFR % Activity Set3 ([2]; Log[nM] 5.0): 0%

Structure (SMILES): FC(F)(F)c1cccc(Nc2ncnc3[nH]ccc23)c1 [Compound 13, N^4-(3-trifluoromethylphenyl)-7H-pyrrolo[2,3-d]pyrimidin-4-amine]
- IC50 [1, 3]: 5780 ± 430 nM
- IC50 [1, 4]: 5800 nM
- Aurora A % Activity Set1 ([1]; Log[nM] 0): 94%
- Aurora A % Activity Set2 ([1]; Log[nM] 0): 101%
- Aurora A % Activity Set3 ([1]; Log[nM] 0): 96%
- Aurora A % Activity Set1 ([1]; Log[nM] 1.0): 103%
- Aurora A % Activity Set2 ([1]; Log[nM] 1.0): 101%
- Aurora A % Activity Set3 ([1]; Log[nM] 1.0): 106%
- Aurora A % Activity Set1 ([1]; Log[nM] 1.5): 107%
- Aurora A % Activity Set2 ([1]; Log[nM] 1.5): 113%
- Aurora A % Activity Set3 ([1]; Log[nM] 1.5): 119%
- Aurora A % Activity Set1 ([1]; Log[nM] 2.0): 110%
- Aurora A % Activity Set2 ([1]; Log[nM] 2.0): 108%
- Aurora A % Activity Set3 ([1]; Log[nM] 2.0): 113%
- Aurora A % Activity Set1 ([1]; Log[nM] 2.5): 108%
- Aurora A % Activity Set2 ([1]; Log[nM] 2.5): 108%
- Aurora A % Activity Set3 ([1]; Log[nM] 2.5): 112%
- Aurora A % Activity Set1 ([1]; Log[nM] 3.0): 94%
- Aurora A % Activity Set2 ([1]; Log[nM] 3.0): 100%
- Aurora A % Activity Set3 ([1]; Log[nM] 3.0): 94%
- Aurora A % Activity Set1 ([1]; Log[nM] 3.5): 73%
- Aurora A % Activity Set2 ([1]; Log[nM] 3.5): 63%
- Aurora A % Activity Set3 ([1]; Log[nM] 3.5): 72%
- Aurora A % Activity Set1 ([1]; Log[nM] 4.0): 32%
- Aurora A % Activity Set2 ([1]; Log[nM] 4.0): 26%
- Aurora A % Activity Set3 ([1]; Log[nM] 4.0): 28%
- Aurora A % Activity Set1 ([1]; Log[nM] 4.5): 13%
- Aurora A % Activity Set2 ([1]; Log[nM] 4.5): 10%
- Aurora A % Activity Set3 ([1]; Log[nM] 4.5): 11%
- Aurora A % Activity Set1 ([1]; Log[nM] 5.0): 14%
- Aurora A % Activity Set2 ([1]; Log[nM] 5.0): 11%
- Aurora A % Activity Set3 ([1]; Log[nM] 5.0): 13%
- IC50 ([2]; 10 µM ATP, triplicate, cell without unit, read-out: EGFR IC50 ± SD): 43.6 ± 7.77 nM
- IC50 [2, 5]: 43.9 nM
- EGFR % Activity Set1 ([2]; Log[nM] 0): 91%
- EGFR % Activity Set2 ([2]; Log[nM] 0): 92%
- EGFR % Activity Set3 ([2]; Log[nM] 0): 91%
- EGFR % Activity Set1 ([2]; Log[nM] 1.0): 66%
- EGFR % Activity Set2 ([2]; Log[nM] 1.0): 76%
- EGFR % Activity Set3 ([2]; Log[nM] 1.0): 95%
- EGFR % Activity Set1 ([2]; Log[nM] 1.5): 54%
- EGFR % Activity Set2 ([2]; Log[nM] 1.5): 61%
- EGFR % Activity Set3 ([2]; Log[nM] 1.5): 56%
- EGFR % Activity Set1 ([2]; Log[nM] 2.0): 29%
- EGFR % Activity Set2 ([2]; Log[nM] 2.0): 30%
- EGFR % Activity Set3 ([2]; Log[nM] 2.0): 32%
- EGFR % Activity Set1 ([2]; Log[nM] 2.5): 17%
- EGFR % Activity Set2 ([2]; Log[nM] 2.5): 19%
- EGFR % Activity Set3 ([2]; Log[nM] 2.5): 15%
- EGFR % Activity Set1 ([2]; Log[nM] 3.0): 8%
- EGFR % Activity Set2 ([2]; Log[nM] 3.0): 8%
- EGFR % Activity Set3 ([2]; Log[nM] 3.0): 6%
- EGFR % Activity Set1 ([2]; Log[nM] 3.5): 3%
- EGFR % Activity Set2 ([2]; Log[nM] 3.5): 4%
- EGFR % Activity Set3 ([2]; Log[nM] 3.5): 3%
- EGFR % Activity Set1 ([2]; Log[nM] 4.0): 0%
- EGFR % Activity Set2 ([2]; Log[nM] 4.0): 1%
- EGFR % Activity Set3 ([2]; Log[nM] 4.0): 1%
- EGFR % Activity Set1 ([2]; Log[nM] 4.5): 0%
- EGFR % Activity Set2 ([2]; Log[nM] 4.5): 1%
- EGFR % Activity Set3 ([2]; Log[nM] 4.5): 0%
- EGFR % Activity Set1 ([2]; Log[nM] 5.0): 0%
- EGFR % Activity Set2 ([2]; Log[nM] 5.0): 0%
- EGFR % Activity Set3 ([2]; Log[nM] 5.0): 1%
